Some test systems named below: BT-549 breast; HCT-116 colon; HS 578T breast; K-562 leukemia; KM12 colon; LOX IMVI melanoma; MOLT-4 leukemia; NCI-H522 lung; OVCAR-4 ovarian; SF-295 CNS.
Common to all, as to assay: NCI tumour cell line growth inhibition, 48 h

Experimental findings from PubChem BioAssay (NCI) are described below.

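Tested at 5 concentrations; 48 h exposure; 96-well plates; endpoints linearly interpolated, else capped at highest concentration. GI50: concentration for 50% inhibition of growth. TGI is the concentration that stops growth completely.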

Consider `S=C1NC(c2ccccc2)NC(c2ccccc2)S1` (configuration not stated), for which the TGI in the test with BT-549 breast, in the test on HCT-116 colon, in the test on HS 578T breast, in the test with K-562 leukemia, with KM12 colon and with LOX IMVI melanoma was more than 100 µM in each case. For the same compound, the TGI in the test with MOLT-4 leukemia, in the test on NCI-H522 lung, in the test on OVCAR-4 ovarian and in the test on SF-295 CNS was more than 100 µM throughout.
For the compound `COc1ccc(N2CCN(c3nc(-c4ccccn4)nc4sc5c(c34)CCCCCC5)CC2)cc1`, the GI50 in the test on BT-549 breast was 6.92 µM; in the test with HCT-116 colon, 3.22 µM; in the test with HS 578T breast it was 57.6 µM; with K-562 leukemia, 4.15 µM; in the test on KM12 colon it was 5.15 µM; in the test with LOX IMVI melanoma, 6.24 µM. Also, the GI50 is 3.26 µM in the test on MOLT-4 leukemia, 18.6 µM with NCI-H522 lung and 8.58 µM with OVCAR-4 ovarian. The TGI with BT-549 breast, in the test on HCT-116 colon, in the test with HS 578T breast, with K-562 leukemia, in the test on KM12 colon and with LOX IMVI melanoma was more than 100 µM throughout. The TGI in the test on MOLT-4 leukemia, in the test with NCI-H522 lung and in the test on OVCAR-4 ovarian was more than 100 µM throughout.
Turning to `Nc1ncnc2c1ncn2Cc1ccc(CCl)cc1`, the GI50 with BT-549 breast was 14.3 µM; with HCT-116 colon it was 36.2 µM; with HS 578T breast, 25.9 µM; in the test on K-562 leukemia, 14.9 µM; in the test on KM12 colon, 13.6 µM; in the test on LOX IMVI melanoma, 23.5 µM. Also, the GI50 with NCI-H522 lung is 24 µM; with OVCAR-4 ovarian, 19.4 µM; with SF-295 CNS it was 15.7 µM. Besides, the TGI in the test with BT-549 breast was 28.7 µM; with HCT-116 colon it was more than 100 µM; in the test on HS 578T breast, 58.1 µM; in the test with K-562 leukemia, more than 100 µM; in the test on KM12 colon, 37.2 µM; in the test with LOX IMVI melanoma, 51.7 µM. Further, the TGI was 51.9 µM with NCI-H522 lung, 38.3 µM in the test on OVCAR-4 ovarian and 34.4 µM in the test on SF-295 CNS.
As for `O=C(Nc1cccc(Cl)c1)Nc1cc(C(F)(F)F)ccc1Cl`, the GI50 with BT-549 breast is 2.81 µM; in the test on HCT-116 colon it was 2.54 µM; in the test on HS 578T breast, 2.63 µM; in the test with K-562 leukemia, 3.36 µM; with KM12 colon, 2.65 µM; in the test on LOX IMVI melanoma, 2.75 µM. Besides, the GI50 in the test on MOLT-4 leukemia was 3.12 µM; in the test on NCI-H522 lung it was 2.14 µM; in the test on OVCAR-4 ovarian, 3.8 µM. Moreover, the TGI with BT-549 breast came to 10.1 µM; in the test with HCT-116 colon, 7.48 µM; in the test on HS 578T breast, 8.39 µM; with K-562 leukemia it was 18.2 µM; with KM12 colon, 6.98 µM; in the test on LOX IMVI melanoma, 6.96 µM. Besides, the TGI in the test on MOLT-4 leukemia came to 11.4 µM; in the test with NCI-H522 lung, 7.7 µM; in the test on OVCAR-4 ovarian it was 16.6 µM.
Regarding `COC1C[C@H](O[C@@H]2C[C@H](O[C@@H]3C[C@H](O[C@@H]4C(=O)c5c(cc6cc(O[C@H]7C[C@@H](O[C@H]8C[C@@H](O)[C@H](O)C(C)O8)[C@H](O)C(C)O7)c(C)c(O)c6c5O)C[C@H]4C(OC)C(=O)[C@@H](O)[C@@H](C)O)OC(C)[C@H]3O)OC(C)[C@@H]2O)OC(C)[C@@H]1O` (some centres not stated), the GI50 is 0.0785 µM in the test on BT-549 breast; 0.0968 µM in the test on HCT-116 colon; 0.0743 µM with HS 578T breast; 0.119 µM in the test on K-562 leukemia; 0.0545 µM in the test on LOX IMVI melanoma; 0.111 µM in the test on MOLT-4 leukemia. The GI50 with NCI-H522 lung was 0.0696 µM; in the test on OVCAR-4 ovarian, 0.134 µM; in the test with SF-295 CNS it was 0.104 µM. For the same compound, the TGI is 0.565 µM in the test with BT-549 breast; more than 32.5 µM in the test with HCT-116 colon; 4.96 µM in the test with HS 578T breast; more than 32.5 µM in the test on K-562 leukemia; 0.168 µM in the test on LOX IMVI melanoma; more than 32.5 µM in the test on MOLT-4 leukemia. The TGI in the test with NCI-H522 lung was 0.265 µM; with OVCAR-4 ovarian, 2.76 µM; with SF-295 CNS, more than 32.5 µM.
For the compound `COC(=O)C1(N2CCOCC2)CCC([C@@H](c2ccccc2)C(C)[N+](=O)[O-])C1` (some centres not stated), the TGI was 60.8 µM in the test with BT-549 breast; more than 100 µM with HS 578T breast; more than 100 µM with K-562 leukemia; more than 100 µM in the test on KM12 colon; more than 100 µM in the test with LOX IMVI melanoma; more than 100 µM with MOLT-4 leukemia. For the same compound, the TGI in the test on OVCAR-4 ovarian and in the test on SF-295 CNS was more than 100 µM each time.
`O=C(COc1ccc(Cl)cc1Cl)NNc1ccc([N+](=O)[O-])cc1`: the GI50 is 24 µM with BT-549 breast; 65.3 µM in the test on HCT-116 colon; 25.6 µM in the test with HS 578T breast; 39 µM in the test with K-562 leukemia; more than 100 µM in the test on KM12 colon; more than 100 µM in the test with LOX IMVI melanoma. For the same compound, the GI50 is 81.6 µM with MOLT-4 leukemia, more than 100 µM in the test on OVCAR-4 ovarian and 19.7 µM in the test with SF-295 CNS. For the same compound, the TGI with BT-549 breast is 52 µM; in the test on HCT-116 colon, more than 100 µM; in the test with HS 578T breast it was 95.4 µM; with K-562 leukemia, more than 100 µM; with KM12 colon it was more than 100 µM; in the test on LOX IMVI melanoma it was more than 100 µM. In addition, the TGI with MOLT-4 leukemia is more than 100 µM; in the test with OVCAR-4 ovarian it was more than 100 µM; in the test with SF-295 CNS it was 40.1 µM.
As to `Nc1nc(N)c2c(n1)NC(c1ccc(Cl)cc1)C1CCc3ccccc3C1=N2` (configuration not stated), the GI50 with BT-549 breast is 9.01 µM; in the test with HCT-116 colon it was 3.72 µM; in the test with HS 578T breast, 15 µM; in the test with KM12 colon, 8.48 µM; in the test on LOX IMVI melanoma, 3.53 µM; in the test with NCI-H522 lung, 5.21 µM. In addition, the GI50 is 6.45 µM in the test with OVCAR-4 ovarian and 3.37 µM in the test with SF-295 CNS. The TGI worked out at 22.6 µM in the test with BT-549 breast; 14.9 µM in the test on HCT-116 colon; 50.3 µM in the test with HS 578T breast; 20.8 µM in the test on KM12 colon; 16.2 µM with LOX IMVI melanoma; 20.9 µM with NCI-H522 lung. Besides, the TGI in the test on OVCAR-4 ovarian was 21 µM; with SF-295 CNS, 14.7 µM.
Consider `[N-]=[N+]=NCCCn1c2c(c3ccccc3c1=O)C(=O)c1cc3c(cc1-2)OCO3`, for which the GI50 in the test on BT-549 breast is more than 100 µM; with HCT-116 colon it was 29.8 µM; in the test on HS 578T breast, more than 100 µM; with K-562 leukemia it was 25.9 µM; with KM12 colon it was more than 100 µM; in the test with LOX IMVI melanoma, 44.9 µM. Also, the values for the GI50 in the test with MOLT-4 leukemia, in the test with NCI-H522 lung and in the test with SF-295 CNS were 19.6 µM, 15.6 µM and 44.1 µM, respectively. The TGI with BT-549 breast, in the test with HCT-116 colon, with HS 578T breast, in the test on K-562 leukemia, with KM12 colon and with LOX IMVI melanoma was more than 100 µM each time. For the same compound, the TGI in the test on MOLT-4 leukemia, with NCI-H522 lung and with SF-295 CNS was more than 100 µM in each case.
